Read-outs that look alike come from different tables or passages of the source.
Columns and labels:
USP1-UAF1 = USP1-UAF1 (Homo sapiens, UniProt O94782); assay: Ubiquitin Rhodamine assay of USP1-UAF1 activity; type: biochemical
Description: Certain compounds of the disclosure were assessed for USP1-UAF1 activity in a Ubiquitin Rhodamine assay as described in Biology Example 1.

monoubiquitinated PCNA = assay: AlphaLISA assay measuring monoubiquitinated PCNA in MDA-MB-436; type: cell-based; conditions: read-out: Alpha Lisa IC50
Source text: Table 1 also indicates IC50 values for exemplary compounds in an AlphaLISA assay measuring monoubiquitinated PCNA in a BRCA1 mutant cell line (MDA-MB-436; column 7).

MDA-MB-436 = assay: Viability assay, BRCA1 mutant cell line MDA-MB-436; type: cell-based; conditions: BRCA1 mutant MDA-MB-436, read-out: MDA-MB-436 rel IC50
Source text: (§1) Table 1 also indicates IC50 values in a viability assay for a non-isogenic pair of BRCA1 mutant (column 5-MDA-MB-436) and BRCA1 WT (column 6—HCC1954) cell lines. These values indicate the effect of treatment with compound on cell survival.

HCC1954 = assay: Viability assay, BRCA1 WT cell line HCC1954; type: cell-based; conditions: read-out: HCC1954 rel IC50
Source text: as §1

[1] = Homo sapiens, MDA-MB-436, monoubiquitinated PCNA
[2] = Homo sapiens, MDA-MB-436, viability
[3] = Homo sapiens, HCC1954, viability

Sequence of USP1-UAF1 (O94782 whole entry): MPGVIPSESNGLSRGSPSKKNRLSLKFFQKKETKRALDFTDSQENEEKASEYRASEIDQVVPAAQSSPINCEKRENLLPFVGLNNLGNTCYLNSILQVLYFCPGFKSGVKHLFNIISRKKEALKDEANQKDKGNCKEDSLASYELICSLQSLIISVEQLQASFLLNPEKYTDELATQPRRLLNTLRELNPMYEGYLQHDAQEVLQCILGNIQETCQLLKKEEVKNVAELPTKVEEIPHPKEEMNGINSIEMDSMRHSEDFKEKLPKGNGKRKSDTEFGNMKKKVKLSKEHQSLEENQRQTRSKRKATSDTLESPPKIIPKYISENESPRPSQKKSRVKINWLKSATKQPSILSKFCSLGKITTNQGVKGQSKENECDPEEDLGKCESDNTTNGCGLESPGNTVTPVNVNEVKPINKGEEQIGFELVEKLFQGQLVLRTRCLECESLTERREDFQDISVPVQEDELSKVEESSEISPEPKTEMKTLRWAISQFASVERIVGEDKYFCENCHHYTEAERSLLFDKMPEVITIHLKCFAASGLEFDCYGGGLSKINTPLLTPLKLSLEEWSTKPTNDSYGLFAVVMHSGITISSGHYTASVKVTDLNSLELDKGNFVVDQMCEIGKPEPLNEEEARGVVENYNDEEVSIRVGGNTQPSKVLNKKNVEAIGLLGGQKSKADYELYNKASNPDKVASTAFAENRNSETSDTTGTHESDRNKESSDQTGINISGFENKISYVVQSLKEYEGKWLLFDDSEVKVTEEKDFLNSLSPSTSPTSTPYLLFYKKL
Sequence of USP1-UAF1 (Q8TAF3 whole entry partner): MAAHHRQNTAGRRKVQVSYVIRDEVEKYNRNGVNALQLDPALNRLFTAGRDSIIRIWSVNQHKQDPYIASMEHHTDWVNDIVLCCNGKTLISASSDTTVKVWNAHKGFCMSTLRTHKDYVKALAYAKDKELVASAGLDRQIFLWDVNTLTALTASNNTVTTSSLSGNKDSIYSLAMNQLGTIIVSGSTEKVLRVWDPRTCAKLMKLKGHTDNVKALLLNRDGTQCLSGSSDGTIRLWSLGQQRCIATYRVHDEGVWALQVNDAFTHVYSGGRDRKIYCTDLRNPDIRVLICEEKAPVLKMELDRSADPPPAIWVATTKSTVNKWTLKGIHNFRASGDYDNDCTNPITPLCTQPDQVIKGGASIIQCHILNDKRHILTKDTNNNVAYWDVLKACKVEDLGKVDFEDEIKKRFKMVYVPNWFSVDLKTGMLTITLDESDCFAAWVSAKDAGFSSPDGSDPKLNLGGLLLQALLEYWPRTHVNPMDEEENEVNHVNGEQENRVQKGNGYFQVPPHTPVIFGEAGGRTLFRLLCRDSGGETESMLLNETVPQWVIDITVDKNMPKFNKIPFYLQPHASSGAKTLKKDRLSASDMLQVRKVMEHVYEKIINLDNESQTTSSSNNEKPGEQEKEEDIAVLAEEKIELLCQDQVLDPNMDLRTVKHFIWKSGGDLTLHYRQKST

| IC50 (USP1-UAF1) | IC50 (monoubiquitinated PCNA; [1]) | IC50 (MDA-MB-436; viability) | IC50 (HCC1954; viability) | IC50 (monoubiquitinated PCNA; monoubiquitinated PCNA) | IC50 (MDA-MB-436; [2]) | IC50 (HCC1954; [3]) | Structure (SMILES) |
| --- | --- | --- | --- | --- | --- | --- | --- |
| 30 to 100 nM | 100 to 250 nM | 250 to 10000 nM | ≥ 10000 nM |  |  |  | CC(C)c1ccccc1-c1ncc2c(n1)n(C(C)c1ccc(-c3nc(Cl)cn3C)cc1)c(=N)n2C (single isomer, unassigned) [Example A-9c, 9-(1-(4-(4-chloro-1-methyl-1H-imidazol-2-yl)phenyl)ethyl)-2-(2-isopropylphenyl)-7-methyl-7,9-dihydro-8H-purin-8-imine] |
| < 30 nM |  | < 100 nM | 250 to 10000 nM | < 100 nM |  |  | CC(C)c1ccccc1-c1ncc2c(n1)n(C(C)c1ccc(-c3nc(Cl)cn3C)cc1)c(=N)n2C (single isomer, unassigned) [Example A-9d, 9-(1-(4-(4-chloro-1-methyl-1H-imidazol-2-yl)phenyl)ethyl)-2-(2-isopropylphenyl)-7-methyl-7,9-dihydro-8H-purin-8-imine] |
| 30 to 100 nM | 250 to 10000 nM |  |  |  | 250 to 10000 nM | ≥ 10000 nM | Cc1nc(-c2ccccc2Cl)nc2c1n(C)c(=N)n2Cc1ccc(-c2nc(C(F)(F)F)cn2C)cc1 (single isomer, unassigned) [Example A-15a, 2-(2-chlorophenyl)-6,7-dimethyl-9-(4-(1-methyl-4-(trifluoromethyl)-1H-imidazol-2-yl)benzyl)-7,9-dihydro-8H-purin-8-imine] |
| < 30 nM | < 100 nM |  |  |  | 100 to 250 nM | 250 to 10000 nM | Cc1nc(-c2ccccc2-c2ccccc2Cl)nc2c1n(C)c(=N)n2Cc1ccc(-c2nc(C(F)(F)F)cn2C)cc1 (single isomer, unassigned) [Example A-15c, 2-(2′-chloro-[1,1′-biphenyl]-2-yl)-6,7-dimethyl-9-(4-(1-methyl-4-(trifluoromethyl)-1H-imidazol-2-yl)benzyl)-7,9-dihydro-8H-purin-8-imine] |
| < 30 nM | 250 to 10000 nM |  |  |  | 250 to 10000 nM | 250 to 10000 nM | CC(C)c1ccccc1-c1nc(Cl)c2c(n1)n(Cc1ccc(-c3nc(C(F)(F)F)cn3C)cc1)c(=N)n2C (single isomer, unassigned) [Example A-22a, 6-chloro-2-(2-isopropylphenyl)-7-methyl-9-(4-(1-methyl-4-(trifluoromethyl)-1H-imidazol-2-yl)benzyl)-7,9-dihydro-8H-purin-8-imine] |
| 30 to 100 nM | 250 to 10000 nM |  |  |  | 250 to 10000 nM | 250 to 10000 nM | CC(C)c1ccccc1-c1nc(-c2ccccc2C(C)C)c2c(n1)n(Cc1ccc(-c3nc(C(F)(F)F)cn3C)cc1)c(=N)n2C (single isomer, unassigned) [Example A-22b, 2,6-bis(2-isopropylphenyl)-7-methyl-9-(4-(1-methyl-4-(trifluoromethyl)-1H-imidazol-2-yl)benzyl)-7,9-dihydro-8H-purin-8-imine] |
| 100 to 10000 nM | 250 to 10000 nM |  | 250 to 10000 nM |  | 250 to 10000 nM |  | CC(C)c1ccccc1-c1ncc2c(n1)n(C(C)C1CCN(c3nc(Cl)cn3C)CC1)c(=N)n2C (single isomer, unassigned) [Example A-26c, 9-(1-(1-(4-chloro-1-methyl-1H-imidazol-2-yl)piperidin-4-yl)ethyl)-2-(2-isopropylphenyl)-7-methyl-7,9-dihydro-8H-purin-8-imine] |
| 30 to 100 nM | 100 to 250 nM |  |  |  | 100 to 250 nM | ≥ 10000 nM | Cn1cc(C(F)(F)F)nc1-c1ccc(Cn2c(=N)n(C)c3cnc(-c4ccccc4[C@H](O)C(F)(F)F)nc32)cc1 (single isomer, unassigned) [Example T-129, 2,2,2-trifluoro-[2-[8-imino-7-methyl-9-[[4-[I-methyl-4-(trifluoromethyl)imidazol-2-yl]phenyl]methyl]purin-2-yl]phenyl]ethanol] |
| 100 to 10000 nM | 100 to 250 nM |  |  |  | 250 to 10000 nM | ≥ 10000 nM | Cn1cc(C(F)(F)F)nc1-c1ccc(Cn2c(=N)n(C)c3cnc(-c4ccccc4[C@@H](O)C(F)(F)F)nc32)cc1 (single isomer, unassigned) [Example T-148, 2,2,2-trifluoro-[2-[8-imino-7-methyl-9-[[4-[I-methyl-4-(trifluoromethyl)imidazol-2-yl]phenyl]methyl]purin-2-yl]phenyl]ethanol] |
| 100 to 10000 nM | 250 to 10000 nM |  |  |  | 250 to 10000 nM | 250 to 10000 nM | CC(C)c1ccccc1-c1ncc2c(n1)n(Cc1ccc(-c3ncc(C(F)(F)F)n3C)cc1)c(=N)n2C [Example A-1, 2-(2-isopropylphenyl)-7-methyl-9-(4-(J-methyl-5-(trifluoromethyl)-1H-imidazol-2-yl)benzyl)-7H-purin-8(9H)-imine] |
| 100 to 10000 nM | 250 to 10000 nM |  |  |  | 250 to 10000 nM | ≥ 10000 nM | CC(C)c1ccccc1-c1ncc2c(n1)n(CC1CCN(c3nc(Cl)cn3C)CC1)c(=N)n2C [Example A-3, 9-((1-(4-chloro-1-methyl-1H-imidazol-2-yl)piperidin-4-yl)methyl)-2-(2-isopropylphenyl)-7-methyl-7H-purin-8(9H)-imine] |
| 30 to 100 nM | 250 to 10000 nM |  |  |  | 250 to 10000 nM | 250 to 10000 nM | CC(C)c1ccccc1-c1ncc2c(n1)n(Cc1ccc(-c3nc(C(F)(F)F)c[nH]3)cc1)c(=N)n2C [Example A-5, 2-(2-isopropylphenyl)-7-methyl-9-(4-(4-(trifluoromethyl)-1H-imidazol-2-yl)benzyl)-7,9-dihydro-8H-purin-8-imine] |
| < 30 nM | < 100 nM |  |  |  |  |  | CC(C)c1ccccc1-c1ncc2c(n1)n(Cc1ccc(-c3nc(C(F)(F)F)cn3C)c(F)c1)c(=N)n2C [Example A-33, 9-(3-fluoro-4-(1-methyl-4-(trifluoromethyl)-1H-imidazol-2-yl)benzyl)-2-(2-isopropylphenyl)-7-methyl-7,9-dihydro-8H-purin-8-imine] |
| 30 to 100 nM | 250 to 10000 nM |  |  |  |  |  | CC(C)c1ccccc1-c1ncc2c(n1)n(Cc1cc(F)c(-c3nc(C(F)(F)F)cn3C)c(F)c1)c(=N)n2C [Example A-43, 9-(3,5-difluoro-4-(1-methyl-4-(trifluoromethyl)-1H-imidazol-2-yl)benzyl)-2-(2-isopropylphenyl)-7-methyl-7,9-dihydro-8H-purin-8-imine] |
| 30 to 100 nM | 100 to 250 nM |  |  |  | 250 to 10000 nM |  | Cn1cc(C(F)(F)F)nc1-c1ccc(Cn2c(=N)n(C)c3cnc(-c4c(C(F)(F)F)cnn4C)nc32)cc1 [Example T-010] |
| < 30 nM | 100 to 250 nM |  |  |  | < 100 nM |  | Cn1cc(C(F)(F)F)nc1-c1ccc(Cn2c(=N)n(C)c3cnc(-c4ccccc4C(F)(F)F)nc32)cc1 [Example T-045] |
| 100 to 10000 nM |  |  |  |  | 250 to 10000 nM | 250 to 10000 nM | Cn1cc(C(F)(F)F)nc1-c1ccc(Cn2c(=N)n(C)c3cnc(-c4c(C(F)(F)F)nn(C)c4C#N)nc32)cc1 [Example T-072] |
| 100 to 10000 nM |  |  |  |  | 250 to 10000 nM | ≥ 10000 nM | Cn1cc(C(F)(F)F)nc1-c1ccc(Cn2c(=N)n(C)c3cnc(-c4ccccc4C(F)(F)F)nc32)cn1 [Example T-073] |
| 100 to 10000 nM |  |  |  |  | 250 to 10000 nM | 250 to 10000 nM | COc1ccn(-c2ccc(Cn3c(=N)n(C)c4cnc(-c5ccccc5C(C)C)nc43)cc2F)n1 [Example T-074] |
| 100 to 10000 nM |  |  |  |  | 250 to 10000 nM | 250 to 10000 nM | CNc1ncccc1-c1ncc2c(n1)n(Cc1ccc(-c3nc(C(F)(F)F)cn3C)cc1)c(=N)n2C [Example T-075] |
| 100 to 10000 nM |  |  |  |  | 250 to 10000 nM | ≥ 10000 nM | Cn1c(=N)n(Cc2ccc(-c3nc(C(F)(F)F)cn3C3COC3)cc2)c2nc(-c3ccccc3C(F)(F)F)ncc21 [Example T-077] |
| 100 to 10000 nM |  |  |  |  | 250 to 10000 nM | 250 to 10000 nM | Cc1cc(-c2nc(C(F)(F)F)cn2C)cc(C)c1Cn1c(=N)n(C)c2cnc(-c3ccccc3C(F)(F)F)nc21 [Example T-080] |
| 100 to 10000 nM |  |  |  |  | 250 to 10000 nM | ≥ 10000 nM | Cn1c(=N)n(Cc2ccc(-c3nc(C(F)(F)F)cn3CCO)cc2)c2nc(-c3ccccc3C(F)(F)F)ncc21 [Example T-083] |
|  | 100 to 250 nM |  |  |  | 100 to 250 nM | ≥ 10000 nM | COc1ncnc(C2CC2)c1-c1ncc2c(n1)n(C1(c3ccc(-c4nc(C(F)(F)F)cn4C)cc3)CC1)c(=N)n2C [Example T-086] |
| 100 to 10000 nM |  |  |  |  | 250 to 10000 nM | ≥ 10000 nM | COc1ncnc(C2CC2)c1-c1ncc2c(n1)n(C[C@H]1CC[C@H](c3nc(C(F)(F)F)cn3C)CC1)c(=N)n2C [Example T-089] |
|  | 250 to 10000 nM |  |  |  | 250 to 10000 nM | ≥ 10000 nM | CCOc1cc(C(F)(F)F)nn1-c1ccc(Cn2c(=N)n(C)c3cnc(-c4ccccc4C(F)(F)F)nc32)cn1 [Example T-091] |
| 100 to 10000 nM |  |  |  |  | 250 to 10000 nM | ≥ 10000 nM | CC(C)c1cnccc1-c1ncc2c(n1)n(Cc1ccc(-c3nc(C(F)(F)F)cn3C)cc1)c(=N)n2C [Example T-096] |
| < 30 nM |  |  |  |  | 100 to 250 nM | 250 to 10000 nM | Cn1cc(C(F)(F)F)nc1-c1ccc(Cn2c(=N)n(CC(F)(F)F)c3cnc(-c4c(C(F)(F)F)cnn4C)nc32)cc1 [Example T-101] |
| 30 to 100 nM |  |  |  |  | < 100 nM | ≥ 10000 nM | COc1ncnc(C2CC2)c1-c1ncc2c(n1)n(Cc1ccc(-c3nc(C(F)(F)F)cn3C)cc1O)c(=N)n2C [Example T-133, 2-[[2-(4-cyclopropyl-6-methoxy-pyrimidin-5-yl)-8-imino-7-methyl-purin-9-yl]methyl]-5-[1-methyl-4-(trifluoromethyl)imidazol-2-yl]phenol] |
